Data on 14 compounds can be found in EP0022330B1, “Synergistic antihypertensive compositions” (SMITHKLINE BECKMAN CORPORATION, priority 1979, dated 1981).

What all share (assay type): in vivo
Assay [1] concerns phosphate mannitol infused dog. As to the kind of experiment: renal clearance study in the phosphate-mannitol infused dog. As to conditions: change from control, triamterene 10 mg. p.o., benzazepine 2.5 mg. p.o. From the text:
Mannitol itself has some proximal natriuretic effect which tends to screen any synergistic effect of the combination. […] In the parameters presented, the control figures are actual values. Phase II, III and IV are changes from control.

Assay [2] deals with anesthetized normotensive dogs. As to the kind of experiment: renal dopamine-like activity by infusion in anesthetized normotensive dogs. As to conditions: for ED15: Canis lupus familiaris, iv, infusion, anesthetized normotensive dogs. On the procedure:
In the test procedure for determining renal dopamine-like activity by infusion in anesthetized normotensive dogs, 6 - chloro - 7,8 - dihydroxy - 1 - (p - hydroxyphenyl) - 2,3,4,5 - tetrahydro - 1 H - 3 - benzazepine has an ED15 of 0.3 µg/kg. The details of the test procedure are presented in the literature references mentioned above. The tri-O-acetyl derivative of this compound has an ED1. of 25 µg/kg, and the tri-O-isobutyryl derivative has an ED15 of 16 µg/kg. Other compounds of Formula I having renal dopaminergic activity can be used by comparing their activity in the anesthetized dog protocol with that of the above specifically named compound in preparing hypotensively effective and non-toxic dosage regimens. For example, referring to compounds of the Formula I in which R is H: […]
The renal dopaminergic ED1. values given above for the infused anesthetized dog are useful to assess quantitative and qualitative biological properties of the 1 - hydroxyphenyl - 7,8 - dihydroxy - 2,3,4,5 - tetrahydro - 1 H - 3 - benzazepine compounds of Formula I. These compounds are preferably given by oral administration. They are rapidly absorbed from the gastrointestinal tract, and have a relatively short half life in vivo. Therefore, the renal dopaminergic agent must be matched with conventional dosage regimens of the diuretic agents considering the pharmacokinetic properties of each active component. This may be accomplished by combining the renal dopaminergic agent with a diuretic in standard dosage unit forms for administration from 2-6 times daily. This would be most suitable when the diuretic agent is of a short acting nature and conventionally multiple daily doses are used to give the desired maintenanance level.

The test system of assay [3] is glucose-infused unanesthetized dog. As to the kind of experiment: renal clearance study in the glucose-infused unanesthetized dog. As to conditions: hydrochlorothiazide 2.5 mg/kg i.v. then 3.0 mg/kg/hr infusion. On the procedure: In the glucose-infused unanesthetized dog, 6 - chloro - 7,8 - dihydroxy - 1 - (p - hydroxyphenyl) 2,3,4,5 - tetrahydro - 1 H - 3 - benzazepine methyl sulfonate was given at the peak time of natriureses established by a maximally effective dose of hydrochlorothiazide.
All dogs were given an oral water load of 3% of body weight of tap water thirty minutes prior to initiation of the experiment. Using a constant infusion pump the dogs were infused intravenously at 3 ml/min. throughout the course of the experiment, with a 5% dextrose solution containing 3.0 mg/kg/hr of hydrochlorothiazide (HCTZ). Glomerular filtration rate was determined by the clearance of creatinine and effective renal plasma flow by the clearance of p-aminohippuric acid (PAH). […] The solution also contained 0.02% ascorbic acid. Suitable plasma levels of creatinine and p-aminohippuric acid were obtained by a twenty minute infusion of this solution to obtain equilibrium prior to starting of the initial urine collection. […] 1.5 ml/kg of a 1% creatinine solution in saline was also injected intravenously fifteen minutes prior to the start of the collection of urine. Replicate urine collections were obtained at ten minute intervals throughout the experiment. The bladder was emptied by an indwelling catheter and complete urine collections were measured by rinsing the bladder with 10 ml of water at the end of each collection interval, followed by an air wash-out. Venous blood samples were drawn from an indwelling catheter at the mid-point of each clearance period.
Plasma and urine osmolalities were determined by freezing point depression on freshly obtained samples. Urine volume and pH were recorded at the time of collection. Plasma and urine samples were stored frozen after collection, until analyzed. Analysis for sodium and potassium were made using the flame. photometer, and for chloride, creatinine, and p-aminohippuric acid, by colorimeter, using standard methodologies. These analyses were made simultaneously on each sample. Peak intensities were identified electronically, recorded by "on-line" teletype, stored and subsequently analyzed mathematically by time-shared computer against appropriate standards. Data were computed from linear least square regression lines and quality control standards were analyzed simultaneously to evaluate system reproducibility and reliability.
In the experiments where hydrochlorothiazide alone was given, twelve clearances were obtained. […] In the combination study the benzazepine was given by stomach tube at 5.0 mg/kg (base) after Ca, The compound was solubilized in water with a small amount of sugar syrup to prevent or minimize emesis. Clearances C7-C'2 (treatment) as in the hydrochlorothiazide alone tests, were taken with no wait between C6 and C7. Five dogs were used with both hydrochlorothiazide and with the combination.

The test system is the same in assay [4]. The assay is described as above. The conditions noted are these: single dose, benzazepine salt alone, glucose-infused dog protocol.
Setting [5] is: individual dog, difference between averages of C1—C6 and C7—C12.

“And” between values parts separate entries of the source, which are not always exact repeats. Equal values may be shown once. Read-outs that look alike come from different tables or passages of the source. Marks after values point to notes of the source that are not given here.

Consider `Nc1nc(N)c2nc(-c3ccccc3)c(N)nc2n1` [Triamterene, triamterene], for which the figures for the “Glomerular Filtration Rate” value in assay [1] (Phase II), in assay [1] (Phase III) and in assay [1] (Phase IV) were −3, −15 and −15**, respectively. In addition, the “Potassium Execretion” value in assay [1] (Phase II) is −3.65; in assay [1] (Phase III) it was −5.44; in assay [1] (Phase IV), −5.61.

`C=CCN1CCc2c(cc(O)c(O)c2Cl)C(c2ccc(O)cc2)C1` (centres unmarked): in assay [2] (0.3 ug/kg/min infusion rate), the renal dopaminergic activity entry is on record as “demonstrated activity”.

Turning to `Oc1ccc(C2CNCCc3c(Cl)c(O)c(O)c(Cl)c32)cc1` (centres unmarked) [D, 6,9 - dichloro - 7,8 - dihydroxy - 1 - (4 - hydroxyphenyl) - 2,3,4,5 - tetrahydro - 1H - 3 - benzazepine], the ED15 in assay [2] (read-out: ED15) came out at 620 µg/kg.

With `CC(C)C(=O)Oc1ccc(C2CNCCc3c2cc(OC(=O)C(C)C)c(OC(=O)C(C)C)c3Cl)cc1` (centres unmarked) [tri-O-isobutyryl derivative], in assay [2] (read-out: ED15), the ED15 is 16 µg/kg.

On to `Cc1c(O)c(O)cc2c1CCNCC2c1ccc(O)cc1` (centres unmarked) [C, 6 - methyl - 7,8 - dihydroxy - 1 - (4 - hydroxyphenyl) - 2,3,4,5 - tetrahydro - 1 H - 3 - benzazepine], for which the ED15 in assay [2] (read-out: ED15) is 2.8 µg/kg.

For `Oc1ccc(C2CNCCc3c2cc(O)c(O)c3Br)cc1` (centres unmarked) [B], in assay [2] (read-out: ED15), the ED15 was found to be 5 µg/kg.

As to `CC(=O)Oc1ccc(C2CNCCc3c2cc(OC(C)=O)c(OC(C)=O)c3Cl)cc1` (centres unmarked) [tri-O-acetyl derivative, 6 - chloro - 7,8 - diacetoxy - 1 - (4 - acetoxyphenyl) 2,3,4,5 - tetrahydro - 1H - 3 - benzazepine], in assay [2] (read-out: ED1.), the ED15 came to 25 µg/kg.

As to `COC(=O)c1c(O)c(O)cc2c1CCNCC2c1ccc(O)cc1` (centres unmarked) [G, 6 - carbomethoxy - 7,8 - dihydroxy - 1 - (4 - hydroxyphenyl) - 2,3,4,5 - tetrahydro - 1H - 3 - benzazepine], the ED15 in assay [2] (read-out: ED15) amounted to 2.3 µg/kg.

As to `Oc1ccc(C2CNCCc3c2cc(O)c(O)c3I)cc1` (centres unmarked) [F], the ED15 in assay [2] (read-out: ED15) worked out at 4.2 µg/kg.

As to `NS(=O)(=O)c1cc2c(cc1Cl)NCNS2(=O)=O` [Hydrochlorothiazide, hydrochlorothiazide], in assay [3] (Average of five dogs), the “Filtration Fraction Δ” value is listed as “−.012”, the “Glomerular Filtration Rate (GFR) Δ % Change” value is −2.4%, the “Ranal Plasma Flow (RPF) Δ % Change” value is given as “+2.6%” and the “Δ % Na^+ Excreted” value was −0.82%. Further, in assay [3] (setting [5]), the “Filtration Fraction Δ” value was “−.01 and 0 and +.01 and −.03 (2×)”; the “Glomerular Filtration Rate (GFR) Δ % Change” value was −6% and +6% and −7% and 0% and −5%; the “Ranal Plasma Flow (RPF) Δ % Change” value is −1% and +6% and −10% and +7% and +11%; the “Δ % Na^+ Excreted” value is −1.1% (2×) and −0.8% and −0.5% and −0.6%.

Take `CS(=O)(=O)O.Oc1ccc(C2CNCCc3c2cc(O)c(O)c3Cl)cc1` (centres unmarked) [6 - Chloro - 7,8 - dihydroxy - 1 - (4 - hydroxyphenyl) - 2,3,4,5 - tetrahydro - 1H - 3 - benzazepine methyl sulphonic acid salt]: the diuretic effect result in assay [4] was “no diuretic effect”.

For `Oc1ccc(C2CNCCc3c2cc(O)c(O)c3Cl)cc1` (centres unmarked) [6 - chloro - 7,8 - dihydroxy - 1 - (p - hydroxyphenyl) - 2,3,4,5 - tetrahydro - 1 H - 3 - benzazepine], the ED15 in assay [2] (read-out: ED15) stood at 0.3 µg/kg. Moreover, the “Glomerular Filtration Rate” value in assay [1] (Phase II) is listed as 1; in assay [1] (Phase III), −2; in assay [1] (Phase IV), −2. In addition, the results for the “Potassium Execretion” value in assay [1] (Phase II), in assay [1] (Phase III) and in assay [1] (Phase IV) were −0.93**, −1.59 and 2.02, respectively.

For `Oc1cccc(C2CNCCc3c2cc(O)c(O)c3Cl)c1` (centres unmarked) [A, 6 - chloro - 7,8 - dihydroxy - 1 - (3 - hydroxyphenyl) - 2,3,4,5 - tetrahydro - 1 H - 3 - benzazepine], the ED15 in assay [2] (read-out: ED15) stood at 0.35 µg/kg.

On to `Cc1c(O)c(O)c(Cl)c2c1CCNCC2c1ccc(O)cc1` (centres unmarked) [E], for which, in assay [2] (read-out: ED15), the ED15 is 30 µg/kg.
